In paper PMC10397291, “Molecular pathway and structural mechanism of human oncochannel TRPV6 inhibition by the phytocannabinoid tetrahydrocannabivarin” (Nature Communications, 2023):
Entries after “also recorded” stand apart in the source; their conditions may differ. Blank lines part the entries; values can stand above or below the molecule they belong to.

Experiments:
[1] = target: C-terminally truncated human TRPV6 (hTRPV6-CtD, residues 1–666 of wild-type channel) (human); assay: cryo-EM structure; hTRPV6-CtD in cNW30 nanodiscs with soybean lipids, 114 µM THCV; 150 mM NaCl, 20 mM Tris-HCl pH 8.0, 1 mM βME; C4 symmetry, 2.79 Å
TRPV6 [2] = details: at the tested doses; cited from earlier work
TRPV5 = test system: TRPV5; set-up: method as in PMID 30170189; details: at the tested doses; cited from earlier work
[3] = target: full-length human TRPV6 L490W mutant with C-terminal streptavidin affinity tag and eGFP (FSEC construct) (human); assay: SEC; fluorescence-detection SEC (FSEC) of eGFP-tagged channels; HEK cells solubilised in 1% DDM, 0.1% CHS, supernatant on Superose 6 10/300 GL in 1 mM DDM, 20 mM Tris-HCl pH 8.0, 150 mM NaCl, 1 mM βME
[4] = target: full-length wild-type human TRPV6 with C-terminal streptavidin affinity tag and eGFP (FSEC construct) (human); assay: as above
TRPV6 [5] = test system: TRPV6; set-up: method as in doi:10.1038/nature17975; details: ref doi:10.1038/nature17975; cited from earlier work
L490W mutant hTRPV6 = target: T1, L490W mutant hTRPV6 (Homo sapiens, UniProt Q9H1D0, L530W); assay: Fura-2 AM Ca2+ uptake, L490W mutant hTRPV6; assay type: cell-based; details: L490W
T1 construct: Full-length wild-type or mutant human TRPV6 was expressed in HEK 293S cells as described above; expressed in transfected cells; host or cells: HEK 293S GnTI- (baculovirus/BacMam transduction)
T1 sequence (Q9H1D0 41-765 L530W limits assumed): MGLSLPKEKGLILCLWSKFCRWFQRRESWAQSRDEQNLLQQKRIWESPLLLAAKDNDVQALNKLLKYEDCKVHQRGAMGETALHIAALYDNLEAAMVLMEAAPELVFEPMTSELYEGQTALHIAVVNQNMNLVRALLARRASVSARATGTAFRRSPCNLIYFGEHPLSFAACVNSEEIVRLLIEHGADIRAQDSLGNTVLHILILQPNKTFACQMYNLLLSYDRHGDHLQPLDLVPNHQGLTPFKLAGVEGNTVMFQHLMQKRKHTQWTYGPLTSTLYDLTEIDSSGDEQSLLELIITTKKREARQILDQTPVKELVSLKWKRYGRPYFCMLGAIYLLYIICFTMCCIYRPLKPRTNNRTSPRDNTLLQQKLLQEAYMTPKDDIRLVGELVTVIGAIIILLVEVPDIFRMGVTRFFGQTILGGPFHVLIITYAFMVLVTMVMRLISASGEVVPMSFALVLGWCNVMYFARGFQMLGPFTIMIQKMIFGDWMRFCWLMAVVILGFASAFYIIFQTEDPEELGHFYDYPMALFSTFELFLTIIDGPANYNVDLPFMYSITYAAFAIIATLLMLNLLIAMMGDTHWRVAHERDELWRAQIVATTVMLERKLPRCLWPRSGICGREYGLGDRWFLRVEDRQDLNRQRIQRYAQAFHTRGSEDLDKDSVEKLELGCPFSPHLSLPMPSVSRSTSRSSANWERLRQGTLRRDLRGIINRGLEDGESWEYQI

stoichiometry N [1]: 4
Molecule: C-terminally truncated human TRPV6 (hTRPV6-CtD, residues 1–666 of wild-type channel) (domain or fragment)

stoichiometry N [3]: 4
Molecule: full-length human TRPV6 L490W mutant with C-terminal streptavidin affinity tag and eGFP (FSEC construct) (natural protein)

Second part, the molecule before the results:

Molecule: C=C(C)[C@@H]1CCC(C)=C[C@H]1c1c(O)cc(CCCCC)cc1O [CBD, cannabidiol]
antagonist effect on TRPV6 (TRPV6 [2]): Lack of CBD effect; also recorded: do not modulate; also recorded: ineffective | antagonist effect on TRPV5 (TRPV5): ineffective

Molecule: full-length wild-type human TRPV6 with C-terminal streptavidin affinity tag and eGFP (FSEC construct) (natural protein)
stoichiometry N [4]: 4

Molecule: [Gd+3] [Gd3+]
block of the calcium uptake signal (TRPV6 [5]): full block of the signal | block of Ca2+ uptake (L490W mutant hTRPV6; 100 µM Gd3+): complete block | inhibition of calcium uptake (L490W mutant hTRPV6; 100 mM Gd3+ as printed, n = 3): complete inhibition
